Laboratory results reported in publication PMC9838390, “Discovery and biosynthesis of karnamicins as angiotensin converting enzyme inhibitors” (Nature Communications, 2023).
Several values for one entry are separate records, joined by “and”; a condition that tells them apart may be missing. Identical values can stand only once.

Key:
KnmB1 [1] = test: Hydrogen peroxide formation assay of KnmB1 and variants; type: biochemical, L. rhizosphaerae NEAU-A2; conditions: 30 °C, average of 3
Experimental: Hydrogen peroxide formation assay and NADPH oxidation
The hydrogen peroxide formed from KnmB1, KnmB2 and their variants were measured using the Hydrogen Peroxide Assay Kit (Beyotime Industrial Co. Ltd, Shanghai, China)4-5. 5–100 µL of enzyme reaction mixture was added to 100 µL of working reagent (S0038-1). The mixture was incubated for 30 min at 25 °C, at which time the absorbance at 560 nm was measured by NanoDrop 2000c (Fisher Scientific). […]
(§1) Spectral data for new compounds […]
Supplementary Figure 131. H2O2 generation and NADPH oxidation for KnmB2, KnmB1 and their variants. (a) Hydrogen peroxide formation of KnmB2 and variants. […]
(b) Hydrogen peroxide formation of KnmB1 and variants. Reaction conditions: 100 µL system containing 50 mM Tris-HCl buffer (pH 7.5), 1 mM NADPH, 16 μM KnmB2, 17 μM KnmB1 or variants, 0.1 mM compound 24,1 mM SAM, and 2 […]
(1 picture or pasted object on this page, not shown here) […]
μM KnmF at 30 °C for 3h. (c) Hydrogen peroxide formation of KnmB1 and variants.
Reaction conditions: 100µL system containing 50 mM Tris-HCl buffer (pH 7.5), 0.3 mM NADPH, and 6 μM KnmB1 or variants, or 0.1 mM 24 at 30 °C for 30 min. […]
(§2) 2 μM KnmB2 or variants, or 0.1 mM substrate 24/32. […]
(§3) Source data are provided as a Source Data file. […]

KnmB1 [2] = test: NADPH oxidation of KnmB1 and variants (340 nm); type: biochemical, L. rhizosphaerae NEAU-A2; conditions: KnmB1 + compound
Experimental: Hydrogen peroxide formation assay and NADPH oxidation […]
NADPH detection was carried out in the cuvette by NanoDrop 2000c (Fisher Scientific). NADPH signal at 340 nm was monitored in time using 6220 M–1 cm–1 as […]
as §1
Reaction conditions: 50 mM Tris-HCl buffer (pH 7.5), 0.15 mM NADPH, and 2 μM KnmB1 or KnmB2. (e) NADPH oxidation of KnmB1 and variants. (f) NADPH oxidation of KnmB1 in the presence 24/32/36. (g) NADPH oxidation of KnmB1 and variants in the presence 24. Reaction conditions (e-g) for KnmB1 and their variants: 50 mM Tris-HCl buffer (pH 7.5), 0.15 mM NADPH, and 6 μM KnmB1 or variants, or 0.1 mM substrate 24/32/36. […]
as §2, §3

SMILES: COc1cc(-c2csc(CCCC(C)=O)n2)nc(C(N)=O)c1O [Compound 36]
- hydrogen peroxide formation of KnmB1 (absorbance UV λ=560 nm), average value (KnmB1 [1]; Fig. S131b, 1 mM NADPH, 17 μM KnmB1, 0.1 mM compound, 3 h): 0.0940
- hydrogen peroxide formation of KnmB1 (absorbance UV λ=560 nm), average value (KnmB1 [1]; Fig. S131c, 0.3 mM NADPH, 6 μM KnmB1, 0.1 mM compound, 30 min): 0.0678
- NADPH oxidation of KnmB1 in the presence of compound (replicates 1, 2, 3) (KnmB1 [2]; Time 0): 0.0000 µM
- NADPH oxidation of KnmB1 in the presence of compound, average value (KnmB1 [2]; Time 0): 0.0000 µM
- NADPH oxidation of KnmB1 in the presence of compound (replicates 1, 2, 3) (KnmB1 [2]; Time 1): 2.6688 µM and 1.0450 µM and 0.7235 µM
- NADPH oxidation of KnmB1 in the presence of compound, average value (KnmB1 [2]; Time 1): 1.4791 µM
- NADPH oxidation of KnmB1 in the presence of compound (replicates 1, 2, 3) (KnmB1 [2]; Time 2): 3.7942 µM and 2.2669 µM and 1.4470 µM
- NADPH oxidation of KnmB1 in the presence of compound, average value (KnmB1 [2]; Time 2): 2.5027 µM
- NADPH oxidation of KnmB1 in the presence of compound (replicates 1, 2, 3) (KnmB1 [2]; Time 3): 3.7460 µM and 2.5241 µM and 4.3730 µM
- NADPH oxidation of KnmB1 in the presence of compound, average value (KnmB1 [2]; Time 3): 3.5477 µM
- NADPH oxidation of KnmB1 in the presence of compound (replicates 1, 2, 3) (KnmB1 [2]; Time 4): 4.9196 µM and 2.5241 µM and 5.4662 µM
- NADPH oxidation of KnmB1 in the presence of compound, average value (KnmB1 [2]; Time 4): 4.3033 µM
- NADPH oxidation of KnmB1 in the presence of compound (replicates 1, 2, 3) (KnmB1 [2]; Time 5): 4.7428 µM and 3.0064 µM and 5.6752 µM
- NADPH oxidation of KnmB1 in the presence of compound, average value (KnmB1 [2]; Time 5): 4.4748 µM
- NADPH oxidation of KnmB1 in the presence of compound (replicates 1, 2, 3) (KnmB1 [2]; Time 8): 5.8360 µM and 3.0064 µM and 8.0225 µM
- NADPH oxidation of KnmB1 in the presence of compound, average value (KnmB1 [2]; Time 8): 5.6217 µM
- NADPH oxidation of KnmB1 in the presence of compound (replicates 1, 2, 3) (KnmB1 [2]; Time 10): 7.2669 µM and 6.4791 µM and 10.8521 µM
- NADPH oxidation of KnmB1 in the presence of compound, average value (KnmB1 [2]; Time 10): 8.1994 µM
- NADPH oxidation of KnmB1 in the presence of compound (replicates 1, 2, 3) (KnmB1 [2]; Time 15): 7.5080 µM and 6.4791 µM and 13.8264 µM
- NADPH oxidation of KnmB1 in the presence of compound, average value (KnmB1 [2]; Time 15): 9.2712 µM
- NADPH oxidation of KnmB1 in the presence of compound (replicates 1, 2, 3) (KnmB1 [2]; Time 20): 10.4502 µM and 12.1865 µM and 17.0257 µM
- NADPH oxidation of KnmB1 in the presence of compound, average value (KnmB1 [2]; Time 20): 13.2208 µM
- NADPH oxidation of KnmB1 in the presence of compound (replicates 1, 2, 3) (KnmB1 [2]; Time 30): 12.4116 µM and 12.1865 µM and 21.2701 µM
- NADPH oxidation of KnmB1 in the presence of compound, average value (KnmB1 [2]; Time 30): 15.2894 µM
- NADPH oxidation of KnmB1 in the presence of compound (replicates 1, 2, 3) (KnmB1 [2]; Time 40): 13.9068 µM and 22.9261 µM and 27.0579 µM
- NADPH oxidation of KnmB1 in the presence of compound, average value (KnmB1 [2]; Time 40): 21.2969 µM
- NADPH oxidation of KnmB1 in the presence of compound (replicates 1, 2, 3) (KnmB1 [2]; Time 60): 18.0547 µM and 22.9261 µM and 35.3698 µM
- NADPH oxidation of KnmB1 in the presence of compound, average value (KnmB1 [2]; Time 60): 25.4502 µM
